Laboratory results as given in paper PMC6927504, “Screening of House Dust from Chinese Homes for Chemicals with Liver X Receptors Binding Activities and Characterization of Atherosclerotic Activity Using an in Vitro Macrophage Cell Line and ApoE^−/− Mice” (Environmental Health Perspectives, 2019).

Experiments:
[1] = biological target: T1, human LXRα (Homo sapiens, UniProt Q13133); test: cell-based
T1 construct: expressed in transfected cells; host or cells: Saccharomyces cerevisiae Y187
T1 sequence (Q13133 205-447): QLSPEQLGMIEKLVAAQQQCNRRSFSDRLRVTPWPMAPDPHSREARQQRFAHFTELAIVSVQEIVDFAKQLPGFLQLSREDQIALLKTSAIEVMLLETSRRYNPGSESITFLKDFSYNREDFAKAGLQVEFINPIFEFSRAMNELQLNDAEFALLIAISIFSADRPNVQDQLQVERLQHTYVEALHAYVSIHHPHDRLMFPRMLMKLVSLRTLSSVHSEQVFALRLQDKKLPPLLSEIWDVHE

[2] = biological target: T2, human LXRβ (Homo sapiens, UniProt P55055); test: Yeast two-hybrid assay (LXRβ LBD with coactivator TIF2, β-galactosidase readout)
T2 sequence (P55055 219-460): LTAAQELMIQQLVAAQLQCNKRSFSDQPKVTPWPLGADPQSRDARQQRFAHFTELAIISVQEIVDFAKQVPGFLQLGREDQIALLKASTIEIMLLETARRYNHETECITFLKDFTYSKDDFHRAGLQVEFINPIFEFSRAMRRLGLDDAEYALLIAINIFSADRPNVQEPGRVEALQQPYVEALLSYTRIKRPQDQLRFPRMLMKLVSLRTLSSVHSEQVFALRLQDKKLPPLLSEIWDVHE

[3] = dust standard reference material SRM2585
[4] = range over indoor dust samples (Table S4)

Structure (SMILES): O=P(Oc1ccccc1)(Oc1ccccc1)Oc1ccccc1 [TPHP, triphenyl phosphate]
- IC50 [1]: 1480 nM
- Contribution to the LXRα-antagonist activity of SRM2585 [1, 3]: 33.83%
- Share of the LXRα-antagonist activity of indoor dust explained by the chemical [1, 4]: 0.19–51.07%
- Contribution to the LXRβ-antagonist activity of SRM2585 [2, 3]: 12.68%
- Share of the LXRβ-antagonist activity of indoor dust explained by the chemical [2, 4]: 0.37–32.60%
